Data from US20060216362A1, “Remedy” (priority 2003, published 2006).

How the values were obtained:
Format in all cases: cell-based
[1] = test system: mature adipocytes (3T3-L1 cells); test: Glucose uptake enhancement inhibited by cytochalasin B (glucose transporter inhibitor)
Protocol: The influence of cytochalasin B on 2-deoxyglucose uptake into mature adipocytes stimulated with the sample in the adipocytes was tested in accordance with the method described in Example 17 on whether or not the enhancing action of the ethanol extract fraction from Polygonum hydropiper obtained in Example 15 on glucose uptake is inhibited by cytochalasin B, which is an inhibitor of a glucose transporter.
Specifically, as a sample, there was set a group with addition of a dimethyl sulfoxide solution of the ethanol extract fraction from Polygonum hydropiper so as to have a final concentration of 0.05% to a well (treatment for a short period of time). There were set a group without addition of the sample as a negative control, and a group with addition of insulin so as to have a final concentration of 1 μg/mL as a positive control. Furthermore, in each group, there was set a group with addition of cytochalasin B (manufactured by Nacalai Tesque, Inc., 10435-81) so as to have a final concentration of 40 μM at the same time as the time of addition of insulin or the sample. Thereafter, the amount of 2-deoxy-[1,2^3H(N)]-glucose taken into the adipocytes was determined in the same manner.

[2] = test system: mature adipocytes (3T3-L1 cells); test: Enhancing action on glucose uptake: 2-deoxy-[1,2-3H(N)]-glucose uptake into mature adipocytes; conditions: positive control, final concentration 1 μg/mL, added when 45 minutes passed; vs negative control
Source text: In addition, there have been known that insulin has an enhancing action on glucose uptake into a cell, and that glucose uptake into the cell is enhanced by the action of insulin in a matured adipocyte (J. Biol. Chem., Vol. 253, No. 20, P7579-7583 (1978)). Specifically, utilizing this method, an insulin-mimetic action of a test substance can be determined by administering a test substance in place of insulin, and determining the amount of glucose uptake into a matured adipocyte.
The induction of differentiation into mature adipocytes was carried out by partially modifying the method of Rubin C. S. et al. 3T3-L1 cells were suspended in a 10% fetal bovine serum-containing Dulbecco's modified Eagle's medium (manufactured by Sigma, D6046) containing 200 μM ascorbic acid so as to have a density of 4×10^3 cells/ml, and the suspension was put in each well of a 12-well microtiter plate in an amount of 2 ml per well. The cells were cultured at 37° C. for 7 days in the presence of 5% carbon dioxide gas. […]
As the evaluation of enhancing action on glucose uptake, and also as the evaluation of insulin-mimetic action, the amount of 2-deoxyglucose uptake into mature adipocytes stimulated with the sample (the above-mentioned extract fraction from Corchorus olitorius) in the adipocytes was determined. […]

[3] = test system: mature adipocytes (3T3-L1 cells); test: Synergistic action of ethanol extract fraction and low-concentration insulin to enhance glucose uptake; conditions: insulin alone, final concentration 0.01 μg/mL, 30 minutes; vs negative control
Protocol: As the evaluation of synergistic action of the ethanol extract fraction from Polygonum hydropiper prepared in Example 15 and a low-concentration insulin to enhance glucose uptake, the amount of 2-deoxyglucose uptake into mature adipocytes stimulated with the sample (the above-mentioned extract fraction from Polygonum hydropiper and insulin) was determined partly in accordance with the method described in Example 17. The mature adipocytes were prepared in accordance with the method described in Example 3.
After the termination of the culture, the medium was removed, and the cells were washed twice with a 0.1% (w/v) bovine serum albumin-containing Dulbecco's modified Eagle's medium. Thereafter, the cells were cultured overnight at 37° C. in the presence of 5% carbon dioxide gas. After the overnight culture, the cells were washed twice with a HEPES buffered saline (140 mM NaCl, 5 mM KCl, 2.5 mM MgSO4, 1 mM CaCl2, 20 mM HEPES-Na (pH 7.4)). The amount 0.9 mL of the same buffer was added thereto, and the cells were cultured at 37° C. for 45 minutes. […] Thereafter, 2-deoxy-[1,2-3H(N)]-glucose taken into the adipocytes was determined in the same manner as the method described in Example 3.

[4] = test system: Preadipocyte cell line 3T3-L1; test: Induction of differentiation into adipocytes, determined as amount of biosynthesis of triglyceride; conditions: positive control, 4 μl then 2 μl of a 5 mg/ml aqueous solution per 2 ml well
Source text: There have been known that insulin enhances induction of differentiation of preadipocytes into adipocytes, and that glucose uptake takes place in matured adipocytes thereby accumulating triglyceride in the adipocytes (J. Biol. Chem., Vol. 253, No. 20, P7570-7578 (1978)). Specifically, utilizing this method, an insulin-mimetic action of a test substance can be determined by administering a test substance in place of insulin, and determining differentiation into an adipocyte and the amount of triglyceride in the adipocytes.
The induction of differentiation into adipocytes was carried out by partially modifying the above-mentioned method of Rubin C. S. et al. (J. Biol. Chem., Vol. 253, No. 20, P7570-7578 (1978)). Preadipocyte cell line 3T3-L1 (ATCC CCL-92.1) was suspended in a 10% fetal bovine serum (manufactured by GIBCO)-containing Dulbecco's modified Eagle's medium (manufactured by Sigma, D6046) containing 200 μM ascorbic acid (hereinafter referred to as A-D-MEM medium) so as to have a density of 4×10^3 cells/ml, and the suspension was put in each well of a 12-well microtiter plate in an amount of 2 ml per well. The cells were cultured at 37° C. for 7 days in the presence of 5% carbon dioxide gas. […]
The amount of triglyceride in the adipocytes was determined as an index for inducing differentiation into matured adipocytes, and as evaluation of insulin-mimetic action. […]

Compound	effect on 2-deoxy-[1,2-3H(N)]-glucose uptake ([1]; cytochalasin B 40 μM added at the same time as insulin or sample, in every group)	enhancement of 2-deoxy-[1,2-3H(N)]-glucose uptake [2]	enhancement of 2-deoxy-[1,2-3H(N)]-glucose uptake ([1]; positive control, final concentration 1 μg/mL, without cytochalasin B, vs negative control)	enhancement of 2-deoxy-[1,2-3H(N)]-glucose uptake [3]	induction of triglyceride biosynthesis (differentiation into adipocytes) [4]
C=C1[C@@H](C)[C@H]2[C@H](Cc3ccccc3)NC(=O)[C@]23OC(=O)/C=C/[C@H](O)CCC[C@@H](C)C/C=C/[C@H]3[C@@H]1O [cytochalasin B]	almost completely inhibited	–	–	–	–
insulin	–	enhancement of 2-deoxy-[1,2^3H(N)]-glucose uptake was found	enhancement of 2-deoxy-[1,2^3H(N)]-glucose uptake was found	enhancement of 2-deoxy-[1,2^3H(N)]-glucose uptake was found	induction of triglyceride biosynthesis could be also confirmed
